{"source": "ChEMBL document CHEMBL1255438", "about": "“Comparative activities of TR-700 (torezolid) against staphylococcal blood isolates collected in Spain” (2010)", "type_in_all_cases": "functional", "key": {"[1]": {"experiment": "Antimicrobial activity against oxacillin-susceptible coagulase-negative Staphylococcus aureus assessed as percent susceptible strain by CLSI method"}, "Staphylococcus [2]": {"tested_on": "Staphylococcus", "experiment": "Antimicrobial activity against oxacillin-resistant coagulase-negative Staphylococcus aureus by CLSI method"}, "Staphylococcus aureus [3]": {"tested_on": "Staphylococcus aureus", "experiment": "Antimicrobial activity against oxacillin-susceptible Staphylococcus aureus assessed as percent susceptible strain by CLSI method"}, "Staphylococcus [4]": {"tested_on": "Staphylococcus", "experiment": "Antimicrobial activity against linezolid-resistant coagulase-negative Staphylococcus by CLSI method"}, "Staphylococcus aureus [5]": {"tested_on": "Staphylococcus aureus", "experiment": "Antimicrobial activity against oxacillin-resistant Staphylococcus aureus by CLSI method"}, "Staphylococcus [6]": {"tested_on": "Staphylococcus", "experiment": "Antimicrobial activity against oxacillin-susceptible coagulase-negative Staphylococcus aureus by CLSI method"}, "Staphylococcus [7]": {"tested_on": "Staphylococcus", "experiment": "Antimicrobial activity against Linezolid and methicillin-resistant coagulase-negative Staphylococcus by CLSI method"}, "Staphylococcus [8]": {"tested_on": "Staphylococcus", "experiment": "Antimicrobial activity against linezolid-susceptible coagulase-negative Staphylococcus by CLSI method"}, "Staphylococcus aureus [9]": {"tested_on": "Staphylococcus aureus", "experiment": "Antimicrobial activity against linezolid-susceptible Staphylococcus aureus by CLSI method"}, "Staphylococcus aureus [10]": {"tested_on": "Staphylococcus aureus", "experiment": "Antimicrobial activity against linezolid-susceptible Staphylococcus aureus assessed as percent susceptible strain by CLSI method"}, "Staphylococcus aureus [11]": {"tested_on": "Staphylococcus aureus", "experiment": "Antimicrobial activity against oxacillin-susceptible Staphylococcus aureus by CLSI method"}, "Staphylococcus [12]": {"tested_on": "Staphylococcus", "experiment": "Antimicrobial activity against linezolid-susceptible coagulase-negative Staphylococcus assessed as percent susceptible strain by CLSI method"}, "Staphylococcus aureus [13]": {"tested_on": "Staphylococcus aureus", "experiment": "Antimicrobial activity against methicillin-resistant Staphylococcus aureus by CLSI method"}, "Staphylococcus aureus [14]": {"tested_on": "Staphylococcus aureus", "experiment": "Antimicrobial activity against linezolid-resistant Staphylococcus aureus by CLSI method"}, "Staphylococcus aureus [15]": {"tested_on": "Staphylococcus aureus", "experiment": "Antimicrobial activity against linezolid-susceptible Staphylococcus aureus assessed as inhibition of microbial growth at 0.5 ug/ml by CLSI method"}, "Staphylococcus aureus [16]": {"tested_on": "Staphylococcus aureus", "experiment": "Ratio of Linezolid MIC90 to compound MIC90 for Linezolid-susceptible Staphylococcus aureus"}, "Staphylococcus aureus [17]": {"tested_on": "Staphylococcus aureus", "experiment": "Ratio of Linezolid MIC50 to compound MIC50 for Linezolid-susceptible Staphylococcus aureus"}, "Staphylococcus aureus [18]": {"tested_on": "Staphylococcus aureus", "experiment": "Antimicrobial activity against oxacillin-susceptible Staphylococcus aureus assessed as inhibition of microbial growth at =< 0.25 ug/ml by CLSI method"}, "Staphylococcus [19]": {"tested_on": "Staphylococcus", "experiment": "Antimicrobial activity against linezolid-susceptible coagulase-negative Staphylococcus assessed as inhibition of microbial growth at 0.5 ug/ml by CLSI method"}, "Staphylococcus aureus [20]": {"tested_on": "Staphylococcus aureus", "experiment": "Antimicrobial activity against oxacillin-resistant Staphylococcus aureus assessed as inhibition of microbial growth at =< 0.25 ug/ml by CLSI method"}, "Staphylococcus aureus [21]": {"tested_on": "Staphylococcus aureus", "experiment": "Antimicrobial activity against linezolid-resistant Staphylococcus aureus assessed as inhibition of microbial growth at 0.5 ug/ml by CLSI method"}, "Staphylococcus [22]": {"tested_on": "Staphylococcus", "experiment": "Antimicrobial activity against linezolid-susceptible coagulase-negative Staphylococcus assessed as inhibition of microbial growth at =< 0.25 ug/ml by CLSI method"}, "Staphylococcus [23]": {"tested_on": "Staphylococcus", "experiment": "Antimicrobial activity against linezolid-resistant coagulase-negative Staphylococcus assessed as inhibition of microbial growth at 0.5 ug/ml by CLSI method"}, "Staphylococcus [24]": {"tested_on": "Staphylococcus", "experiment": "Antimicrobial activity against linezolid-resistant coagulase-negative Staphylococcus assessed as inhibition of microbial growth at =< 0.25 ug/ml by CLSI method"}, "Staphylococcus [25]": {"tested_on": "Staphylococcus", "experiment": "Antimicrobial activity against linezolid-resistant coagulase-negative Staphylococcus assessed as inhibition of microbial growth at 4 ug/ml by CLSI method"}, "Staphylococcus aureus [26]": {"tested_on": "Staphylococcus aureus", "experiment": "Antimicrobial activity against oxacillin-susceptible coagulase-negative Staphylococcus aureus assessed as inhibition of microbial growth at =< 0.25 ug/ml by CLSI method"}, "Staphylococcus aureus [27]": {"tested_on": "Staphylococcus aureus", "experiment": "Ratio of Linezolid to compound activity for cfr-expressing methicillin-resistant Staphylococcus aureus"}, "Staphylococcus aureus [28]": {"tested_on": "Staphylococcus aureus", "experiment": "Antimicrobial activity against oxacillin-susceptible Staphylococcus aureus assessed as inhibition of microbial growth at 0.5 ug/ml by CLSI method"}, "Staphylococcus aureus [29]": {"tested_on": "Staphylococcus aureus", "experiment": "Antimicrobial activity against linezolid-susceptible Staphylococcus aureus assessed as inhibition of microbial growth at =< 0.25 ug/ml by CLSI method"}, "Staphylococcus [30]": {"tested_on": "Staphylococcus", "experiment": "Antimicrobial activity against teicoplanin and methicillin-resistant coagulase-negative Staphylococcus by CLSI method"}, "Staphylococcus [31]": {"tested_on": "Staphylococcus", "experiment": "Antimicrobial activity against linezolid-resistant coagulase-negative Staphylococcus assessed as inhibition of microbial growth at 2 ug/ml by CLSI method"}, "Staphylococcus [32]": {"tested_on": "Staphylococcus", "experiment": "Antimicrobial activity against linezolid-resistant coagulase-negative Staphylococcus assessed as inhibition of microbial growth at 1 ug/ml by CLSI method"}, "Staphylococcus aureus [33]": {"tested_on": "Staphylococcus aureus", "experiment": "Antimicrobial activity against oxacillin-resistant Staphylococcus aureus assessed as inhibition of microbial growth at 0.5 ug/ml by CLSI method"}}, "note": "Activity calls are given as the source filed them. The rule behind the calls is not given here.", "data": [{"smiles": "CCCCCCCCCC(=O)N[C@@H](Cc1c[nH]c2ccccc12)C(=O)N[C@H](CC(N)=O)C(=O)N[C@@H](CC(=O)O)C(=O)N[C@@H]1C(=O)NCC(=O)N[C@@H](CCCN)C(=O)N[C@@H](CC(=O)O)C(=O)N[C@H](C)C(=O)N[C@@H](CC(=O)O)C(=O)NCC(=O)N[C@H](CO)C(=O)N[C@@H]([C@H](C)CC(=O)O)C(=O)N[C@@H](CC(=O)c2ccccc2N)C(=O)O[C@@H]1C", "values": [{"measurement": "Activity", "setting": "[1]", "value": 100, "unit": "%"}, {"measurement": "MIC50", "setting": "Staphylococcus [2]", "value": 0.25, "unit": "µg/mL"}, {"measurement": "MIC90", "setting": "Staphylococcus [2]", "value": 0.5, "unit": "µg/mL"}, {"measurement": "Activity", "setting": "Staphylococcus aureus [3]", "value": 100, "unit": "%"}, {"measurement": "MIC50", "setting": "Staphylococcus [4]", "value": 0.5, "unit": "µg/mL"}, {"measurement": "MIC50", "setting": "Staphylococcus aureus [5]", "value": 0.5, "unit": "µg/mL"}, {"measurement": "MIC90", "setting": "Staphylococcus aureus [5]", "value": 0.5, "unit": "µg/mL"}, {"measurement": "MIC50", "setting": "Staphylococcus [6]", "value": 0.25, "unit": "µg/mL"}, {"measurement": "MIC90", "setting": "Staphylococcus [6]", "value": 0.5, "unit": "µg/mL"}, {"measurement": "MIC", "setting": "Staphylococcus [7]", "value": 0.5, "unit": "µg/mL"}, {"measurement": "MIC50", "setting": "Staphylococcus [8]", "value": 0.25, "unit": "µg/mL"}, {"measurement": "MIC90", "setting": "Staphylococcus [8]", "value": 0.5, "unit": "µg/mL"}, {"measurement": "MIC50", "setting": "Staphylococcus aureus [9]", "value": 0.25, "unit": "µg/mL"}, {"measurement": "MIC90", "setting": "Staphylococcus aureus [9]", "value": 0.5, "unit": "µg/mL"}, {"measurement": "Activity", "setting": "Staphylococcus aureus [10]", "value": 100, "unit": "%"}, {"measurement": "MIC50", "setting": "Staphylococcus aureus [11]", "value": 0.25, "unit": "µg/mL"}, {"measurement": "MIC90", "setting": "Staphylococcus aureus [11]", "value": 0.5, "unit": "µg/mL"}, {"measurement": "Activity", "setting": "Staphylococcus [12]", "value": 100, "unit": "%"}, {"measurement": "Activity", "setting": "Staphylococcus aureus [13]", "value": "Active"}, {"measurement": "MIC50", "setting": "Staphylococcus aureus [14]", "value": 0.5, "unit": "µg/mL"}]}, {"smiles": "Cn1nnc(-c2ccc(-c3ccc(N4C[C@H](CO)OC4=O)cc3F)cn2)n1", "note": "[TEDIZOLID]", "values": [{"measurement": "inhibition at 0.5 µg/mL", "setting": "Staphylococcus aureus [15]", "value": 100, "unit": "%"}, {"measurement": "Ratio", "setting": "Staphylococcus aureus [16]", "value": 4}, {"measurement": "MIC50", "setting": "Staphylococcus [2]", "value": 0.125, "unit": "µg/mL"}, {"measurement": "MIC90", "setting": "Staphylococcus [2]", "value": 0.25, "unit": "µg/mL"}, {"measurement": "Ratio", "setting": "Staphylococcus aureus [17]", "value": 8}, {"measurement": "MIC50", "setting": "Staphylococcus [4]", "value": 2, "unit": "µg/mL"}, {"measurement": "inhibition (INH)", "setting": "Staphylococcus aureus [18]", "value": 99, "unit": "%"}, {"measurement": "MIC50", "setting": "Staphylococcus aureus [5]", "value": 0.25, "unit": "µg/mL"}, {"measurement": "MIC90", "setting": "Staphylococcus aureus [5]", "value": 0.5, "unit": "µg/mL"}, {"measurement": "inhibition at 0.5 µg/mL", "setting": "Staphylococcus [19]", "value": 100, "unit": "%"}, {"measurement": "MIC50", "setting": "Staphylococcus [6]", "value": 0.25, "unit": "µg/mL"}, {"measurement": "MIC90", "setting": "Staphylococcus [6]", "value": 0.25, "unit": "µg/mL"}, {"measurement": "MIC", "setting": "Staphylococcus [7]", "value": 0.25, "unit": "µg/mL"}, {"measurement": "MIC50", "setting": "Staphylococcus [8]", "value": 0.25, "unit": "µg/mL"}, {"measurement": "MIC90", "setting": "Staphylococcus [8]", "value": 0.25, "unit": "µg/mL"}, {"measurement": "inhibition (INH)", "setting": "Staphylococcus aureus [20]", "value": 70, "unit": "%"}, {"measurement": "inhibition at 0.5 µg/mL", "setting": "Staphylococcus aureus [21]", "value": 100, "unit": "%"}, {"measurement": "inhibition (INH)", "setting": "Staphylococcus [22]", "value": 99.5, "unit": "%"}, {"measurement": "inhibition at 0.5 µg/mL", "setting": "Staphylococcus [23]", "value": 20, "unit": "%"}, {"measurement": "inhibition (INH)", "setting": "Staphylococcus [24]", "value": 20, "unit": "%"}, {"measurement": "MIC50", "setting": "Staphylococcus aureus [9]", "value": 0.25, "unit": "µg/mL"}, {"measurement": "MIC90", "setting": "Staphylococcus aureus [9]", "value": 0.5, "unit": "µg/mL"}, {"measurement": "inhibition at 4 µg/mL", "setting": "Staphylococcus [25]", "value": 100, "unit": "%"}, {"measurement": "MIC50", "setting": "Staphylococcus aureus [11]", "value": 0.25, "unit": "µg/mL"}, {"measurement": "MIC90", "setting": "Staphylococcus aureus [11]", "value": 0.25, "unit": "µg/mL"}, {"measurement": "MIC", "setting": "Staphylococcus aureus [13]", "value": 0.5, "unit": "µg/mL"}, {"measurement": "inhibition (INH)", "setting": "Staphylococcus aureus [26]", "value": 100, "unit": "%"}, {"measurement": "Ratio", "setting": "Staphylococcus aureus [27]", "value": 32}, {"measurement": "inhibition at 0.5 µg/mL", "setting": "Staphylococcus aureus [28]", "value": 100, "unit": "%"}, {"measurement": "inhibition (INH)", "setting": "Staphylococcus aureus [29]", "value": 83.1, "unit": "%"}, {"measurement": "MIC", "setting": "Staphylococcus [30]", "value": 0.25, "unit": "µg/mL"}, {"measurement": "inhibition at 2 µg/mL", "setting": "Staphylococcus [31]", "value": 80, "unit": "%"}, {"measurement": "inhibition at 1 µg/mL", "setting": "Staphylococcus [32]", "value": 20, "unit": "%"}, {"measurement": "MIC50", "setting": "Staphylococcus aureus [14]", "value": 0.5, "unit": "µg/mL"}, {"measurement": "inhibition at 0.5 µg/mL", "setting": "Staphylococcus aureus [33]", "value": 100, "unit": "%"}]}]}
